We go through ten molecules from PubChem BioAssay (NCI).

“And” between values parts separate entries of the source, which are not always exact repeats. Equal values may be shown once.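 Five compound concentrations were applied to cells in 96-well plates for 48 hours; endpoints were derived by simple linear interpolation of the resulting dose-response curve. Abbreviation: GI50, concentration required for 50% inhibition of growth. TGI: total growth inhibition.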

Holding throughout (experiment): inhibition of tumour cell growth, NCI panel, 48 h
For experiment [1], the system named is A498 renal.
Experiment [2] relates to COLO 205 colon.
Experiment [3] has as its system M14 melanoma.
In experiment [4] the test system is MDA-MB-435.
The subject of experiment [5] is NCI-H460 lung.
Experiment [6] has as its system NCI-H522 lung.
Experiment [7] relates to SK-OV-3 ovarian.
Experiment [8] has as its system SNB-19 CNS.

With `Cc1ccc(-c2nc3nc(-c4ccc(F)cc4)nc(N4CCNCC4)c3o2)cc1`, the GI50 was 16.1 µM in experiment [1]; 2.1 µM in experiment [2]; 1.92 µM in experiment [3]; 1.78 µM in experiment [4]; 1.94 µM in experiment [5]; 2.18 µM in experiment [6]. Also, the GI50 is 18.7 µM in experiment [7] and 5.97 µM in experiment [8]. Further, the TGI in experiment [1] worked out at 30.5 µM; in experiment [2], 4.64 µM; in experiment [3] it was 3.79 µM; in experiment [4], 3.24 µM; in experiment [5], 3.77 µM; in experiment [6], 6.19 µM. Also, the TGI in experiment [7] came to 34.4 µM; in experiment [8] it was 19.8 µM.
With `O=Cc1cccc2ccc3ccccc3c12`, the TGI in experiment [1] was determined as 62.7 µM; in experiment [2], 37.5 µM; in experiment [3] it was 49.4 µM; in experiment [4] it was 49.6 µM; in experiment [5], 57.8 µM; in experiment [6], 52 µM. The TGI in experiment [7] was determined as 46.5 µM; in experiment [8], 65.5 µM.
Regarding `CC(c1cc(Cl)ccc1O)c1cc(Cl)ccc1O`, the GI50 was 8.4 µM in experiment [1]; 17.6 µM in experiment [2]; 2.97 µM in experiment [3]; 2.32 µM in experiment [4]; 2.26 µM in experiment [5]; 2.24 µM in experiment [6]. Besides, the GI50 is 13.4 µM in experiment [7] and 8.13 µM in experiment [8]. Further, the TGI was determined as 20.8 µM in experiment [1]; 33.5 µM in experiment [2]; 9.82 µM in experiment [3]; 7.25 µM in experiment [4]; 4.88 µM in experiment [5]; 5.24 µM in experiment [6]. Besides, the TGI turned out to be 26.4 µM in experiment [7] and 22.4 µM in experiment [8].
On to `Cc1ccc(F)c(NC(=O)Nc2ccc(-c3cccc4[nH]nc(N)c34)cc2)c1`, for which the GI50 in experiment [1] was 2.24 µM and 2.71 µM; in experiment [2], 2.21 µM and 2.27 µM; in experiment [3], 3.63 µM and 3.58 µM; in experiment [4], 2.68 µM and 2.88 µM; in experiment [5], 2.42 µM and 2.76 µM; in experiment [6] it was 1.87 µM and 2.19 µM. Moreover, the GI50 was 10.5 µM in experiment [7]; 3.79 µM and 3.96 µM in experiment [8]. For the same molecule, the TGI in experiment [1] was 7.02 µM and 9.3 µM; in experiment [2] it was 4.32 µM and 4.9 µM; in experiment [3], 15.5 µM and > 10 µM; in experiment [4], 11 µM and > 10 µM; in experiment [5] it was 5.94 µM and 8.32 µM; in experiment [6], 3.79 µM and 5.28 µM. The TGI in experiment [7] is 23.5 µM and > 10 µM; in experiment [8], 15.8 µM and > 10 µM.
Consider `Cc1ccc([Se](=C(C(=O)c2ccccc2)C(=O)c2ccccc2)c2ccc(C)cc2)cc1`, for which the TGI in experiment [1] is 49 µM; in experiment [2], 43.4 µM; in experiment [3], greater than 100 µM; in experiment [4], 55 µM; in experiment [5], greater than 100 µM; in experiment [6] it was 72.9 µM. Moreover, the TGI in experiment [7] and in experiment [8] was greater than 100 µM throughout.
On to `Cc1ccc(C)c2c1C(=O)N(c1ccc(F)cc1F)C2=O`, for which the GI50 in experiment [1], in experiment [2], in experiment [3], in experiment [4], in experiment [5] and in experiment [6] was greater than 100 µM each time. Also, the GI50 in experiment [7] and in experiment [8] was greater than 100 µM throughout. The TGI in experiment [1], in experiment [2], in experiment [3], in experiment [4], in experiment [5] and in experiment [6] was greater than 100 µM each time. For the same molecule, the TGI in experiment [7] and in experiment [8] was greater than 100 µM in each case.
For the molecule `O=C(Cn1c(C(=O)c2ccc(Cl)cc2)nc(-c2ccc(Cl)cc2)c1-c1ccc(Cl)cc1)c1ccccc1`, the GI50 in experiment [1], in experiment [2], in experiment [3], in experiment [4], in experiment [5] and in experiment [6] was greater than 100 µM throughout. Further, the GI50 in experiment [7] and in experiment [8] was greater than 100 µM each time. The TGI in experiment [1], in experiment [2], in experiment [3], in experiment [4], in experiment [5] and in experiment [6] was greater than 100 µM each time. For the same molecule, the TGI in experiment [7] and in experiment [8] was greater than 100 µM each time.
`CC1=C/C=C/C(=O)O[C@@H]([C@H](C)[C@H](O)[C@@H](C)NC(=O)C(C)C)[C@H](C)/C=C/C(C)=C/[C@H]2C=CCC[C@@]2(C)\C=C\1`: the GI50 is 6.03 µM and 5.25 µM in experiment [1]; 0.322 µM and 0.189 µM in experiment [2]; 0.0377 µM and 0.0293 µM in experiment [3]; 0.0335 µM and 0.0165 µM in experiment [4]; 0.526 µM and 0.287 µM in experiment [5]; 4.97 µM and 2.06 µM in experiment [6]. The GI50 was 3.09 µM and 0.872 µM in experiment [7]; 2.01 µM and 0.736 µM in experiment [8]. For the same molecule, the TGI in experiment [1] is 32.8 µM; in experiment [2] it was 7.33 µM; in experiment [3] it was 0.216 µM and 0.125 µM; in experiment [4], 6.43 µM; in experiment [5], 26.4 µM; in experiment [6], 13.6 µM. Further, the values for the TGI in experiment [7] and in experiment [8] were greater than 42.3 µM and 25.9 µM, respectively.
Turning to `Oc1cc(N2CC2)c(O)cc1N1CC1`, the GI50 is 0.581 µM in experiment [1]; 1.02 µM in experiment [2]; 0.511 µM in experiment [3]; 1.37 µM in experiment [4]; 0.21 µM in experiment [5]; 0.287 µM in experiment [6]. Moreover, the GI50 in experiment [7] is 1.54 µM; in experiment [8] it was 1.78 µM. Also, the TGI in experiment [1] was determined as 2.55 µM; in experiment [2] it was 2.21 µM; in experiment [3], 1.93 µM; in experiment [4], 3.32 µM; in experiment [5] it was 5.15 µM; in experiment [6] it was 1.48 µM. Further, the TGI in experiment [7] amounted to 8.77 µM; in experiment [8], 13.5 µM.
Take `COc1ccc(/C=C/C(=O)c2c(O)ccc3c(C)c(C(=O)O)oc23)cc1`: the GI50 is 14.9 µM in experiment [1]; 63.4 µM in experiment [2]; greater than 100 µM in experiment [3]; 50.5 µM in experiment [4]; 34 µM in experiment [5]; 33.9 µM in experiment [6]. In addition, the figures for the GI50 in experiment [7] and in experiment [8] were greater than 100 µM and 64.9 µM, respectively. Further, the TGI is 67.7 µM in experiment [1]; greater than 100 µM in experiment [2]; greater than 100 µM in experiment [3]; greater than 100 µM in experiment [4]; greater than 100 µM in experiment [5]; greater than 100 µM in experiment [6]. Moreover, the TGI in experiment [7] and in experiment [8] was greater than 100 µM in each case.
